From patent US20220000840A1, “PHARMACEUTICAL COMPOSITION AND PREPARATION METHOD THEREFOR” (priority 2015, published 2022)

Key:
[1] = Stability of NL-101 intermediate/diluted solution (before lyophilization) at room temperature (25±2°C), HPLC; format: physicochemical; conditions: for Purity: intermediate solution per Example 2 of CN103826630A, room temperature (25 ± 2° C.)
Method: (§1) Northlake Biosciences LLC submitted an application WO2013010286A2 on Sep. 14, 2012, and its Chinese family patent is CN103826630A. Chinese family patent application CN103826630A uses acetic acid to dissolve NL-101 and use cyclodextrin inclusion technology to prepare lyophilized powder for injection to improve the safety of NL-101. However, the prepared NL-101 lyophilized powder for injection, such as Example 2, although claimed to be chemically stable at −20° C., 4° C. and room temperature for at least 2 weeks, in fact, the inventors of the present application have verified that the results are still far from satisfying the clinical application requirements of drugs. Although it can be stable for 2-3 weeks at −20° C. and 4° C., it is only stable for several days at room temperature. […] Especially when placed only 5 days in the condition of high temperature accelerated test at 40° C., more than 15% of NL-101 was degraded. The specific stability test results are shown in Table 1, Table 2, and Table 3 below.
The diluted solutions prepared according to the formulations 1-15, 1-1, 2-1, 3-1 and according to Example 2 of CN103826630A were left to stand for 2 hours at room temperature (25±2° C.) and the stability of each diluted solution was tested by high performance liquid chromatography.
The diluted solutions prepared according to the formulations 16-29 and according to Example 2 of CN103826630A were left to stand for 2 hours at room temperature (25±2° C.) and the stability of each diluted solution was tested by high performance liquid chromatography.
Three batches of diluted solutions were taken and placed at room temperature (25±2° C.) for different periods of time. The stability of each diluted solution was tested by high performance liquid chromatography.

[2] = Storage stability of NL-101 lyophilized preparation (room temperature, 4°C, -20°C); format: physicochemical; conditions: for time stable: verified by the inventors; for Purity: lyophilized preparation per Example 2 of CN103826630A, room temperature (25 ± 2° C.)
Method: as §1
According to the accelerated test results at 40° C., it is presumed that under the condition of storage, transportation and sales at room temperature (25±2° C.), it can remain stable for at least 2 years and fully meet the needs of clinical use.

[3] = Accelerated test of NL-101 lyophilized preparation at 40°C, HPLC / HPLC-MS; format: physicochemical; conditions: for Purity: lyophilized preparation per Example 2 of CN103826630A, accelerated test at 40° C.
Method: as §1
The NL-101 lyophilized preparation for injection prepared according to the formulation 4 was taken and subjected to an accelerated test at 40° C., and the stability was tested by high performance liquid chromatography.
The NL-101 lyophilized preparation for injection prepared according to the formulations 16 and 22 were taken and subjected to an accelerated test at 40° C., and the accelerated test samples were test by high performance liquid chromatography in connection with mass spectrometry.
The above three batches of lyophilized powder for injection were taken and subjected to accelerated experiments at 40° C. The contents and total impurities were measured at 0, 1, 3, and 6 months, respectively.

[4] = Stability of NL-101 reconstituted solution (5 mg/mL) at room temperature (25±2°C); format: physicochemical; conditions: CN103826630A Example 2 lyophilized preparation
Text: In the process of investigating the NL-101 lyophilized preparation, the inventors unexpectedly discovered that reconstitution of the NL-101 lyophilized preparation with different solvents has a great influence on the stability of NL-101. For example, the lyophilized preparation prepared in Example 2 of CN103826630A was reconstituted with water for injection and physiological saline, respectively, and the purity of NL-101 in the reconstituted solution was examined at different time points.
Since the NL-101 lyophilized powder for injection prepared in Example 2 of CN103826630A contains sodium ions, it is speculated that the stability of NL-101 is increased by chlorine ions in sodium chloride. In order to confirm this, we conducted a stability investigation by reconstituting the lyophilized preparation prepared in Example 2 of CN103826630A in a potassium chloride solution having the same molar concentration as physiological saline.

[5] = Solubility and chemical stability of NL-101 drug substance; format: physicochemical
[6] = lyophilized powder for injection of CN103826630A Example 2, at −20° C., 4° C. and room temperature, as claimed in CN103826630A; cited from earlier work
[7] = intravenous injection of prior-art injection (NL-101 dissolved with acetic acid, diluted with water for injection), animal; cited from earlier work

In the case of `Cn1c(CCCCCCC(=O)NO)nc2cc(N(CCCl)CCCl)ccc21` [NL-101, 7-[5-[bis(chloroethyl)-amino]-1-methylbenzimidazol-2-yl]-N-hydroxyl-heptamide], the NL-101 degraded ([1]; intermediate solution before lyophilization per Example 2 of CN103826630A, in the dark at room temperature for 4 hours) is reported as “more than 15%”, the Purity ([1]; 0 h) is reported as 94.05% and the Purity ([1]; 2 h) is reported as 88.06%. For the same molecule, the Purity ([1]; 4 h) was 78.22%, the time stable ([2]; lyophilized powder for injection of CN103826630A Example 2, at room temperature) was “several days” and the time stable ([2]; lyophilized powder for injection of CN103826630A Example 2, at −20° C. and 4° C.) was 2-3 weeks. For the same molecule, the “degradation of NL-101” value ([2]; lyophilized powder for injection of CN103826630A Example 2, room temperature for 1 month) was “degraded severely”, the Purity ([2]; day 0) was 90.23% and the Purity ([2]; day 5) was 85.16%. The Purity ([2]; day 15) was 77.31%, the Purity ([2]; day 30) was 70.55% and the NL-101 degraded ([3]; lyophilized powder for injection of CN103826630A Example 2, 5 days in accelerated test at 40° C.) was “more than 15%”. For the same molecule, the Purity ([3]; day 0) was 90.23%, the Purity ([3]; day 5) was 72.31% and the “purity of NL-101 reconstituted with potassium chloride injection” value (“purity … with potassium chloride injection” below) ([4]; 0 h) was 91.28%. For the same molecule, the “purity of NL-101 reconstituted with sodium chloride injection” value (shortened to “purity … with sodium chloride injection”) ([4]; 0 h) was 91.88%, the “purity of NL-101 reconstituted with water for injection” value (from here on “purity … for injection”) ([4]; 0 h) was 90.23% and the “purity … with potassium chloride injection” value ([4]; 2 h) was 86.25%. For the same molecule, the “purity … with sodium chloride injection” value ([4]; 2 h) was 87.05%, the “purity … for injection” value ([4]; 2 h) was 80.06% and the “purity … with potassium chloride injection” value ([4]; 4 h) was 81.93%. For the same molecule, the “purity … with sodium chloride injection” value ([4]; 4 h) was 80.23%, the “purity … for injection” value ([4]; 4 h) was 71.08% and the “purity … with potassium chloride injection” value ([4]; 6 h) was 83.56%. For the same molecule, the “purity … with sodium chloride injection” value ([4]; 6 h) was 78.33%, the “purity … for injection” value ([4]; 6 h) was 59.36% and the solubility ([5]; in acetic acid) was “easily soluble”. The stability ([5]; in aqueous solution) was “unstable”, the stability ([5]; in case of strong acid, strong alkali, strong oxidant and light) was “easily degraded” and the solubility ([5]; in ethanol) was “very slightly soluble”. For the same molecule, the solubility ([5]; in methanol) was “slightly soluble”, the stability ([5]; in methanol and acetic acid solution) was “relatively stable” and the solubility ([5]; in water) was “insoluble”. For the same molecule, the “time claimed to be chemically stable” value [6] was “at least 2 weeks”, the mortality rate [7] was “high” and the toxicity [7] was “highly toxic”. The vascular irritation [7] was “large”.
